# Laboratory results published in article PMC6264193, “Synthesis and Biological Evaluation of Novel ^99mTc-Labelled Bisphosphonates as Superior Bone Imaging Agents” (Molecules, 2011).
# What was measured:
# [1] = system: bone resorption; set-up: method as in PMID 18593621; details: preclinical models of bone resorption; cited from earlier work
melting point [°C],SMILES,potency relative to clodronate and pamidronate [1],potency relative to etidronate [1]
183 to 186,"Cc1nccn1CCC(O)(P(=O)(O)O)P(=O)(O)O [Compound 4a, 1-Hydroxy-3-(2-methyl-1H-imidazol-1-yl)propane-1,1-diyldiphosphonic acid]",,
142 to 145,"Cc1nccn1CCCC(O)(P(=O)(O)O)P(=O)(O)O [Compound 4b, 1-Hydroxy-4-(2-methyl-1H-imidazol-1-yl)butane-1,1-diyldiphosphonic acid]",,
212 to 215,"Cc1nccn1CCCCC(O)(P(=O)(O)O)P(=O)(O)O [Compound 4c, 1-Hydroxy-5-(2-methyl-1H-imidazol-1-yl)pentane-1,1-diyldiphosphonic acid]",,
,"O=P(O)(O)C(O)(Cn1ccnc1)P(=O)(O)O [ZL, 1-hydroxy-2-(imidazol-1-yl)-ethylidene-1,1-bisphosphonic acid]",at least 100 times,"at least 1,000 times"
